The subject of one data set is AGT-170 cells. Nature of the data set: Phenotypic cell based AGT/peroxisome co-localization high content assay (Pearson's colocalization coefficient), AGT-170 cells. Details: species or system Chinese hamster. The conditions noted are these: for % rescue (normalized AGT co-localization): pilot screen, 1536 well, FIG. 3, normalized to AGT-mi (high) and AGT-170 (low) DMSO controls, 4 μM final stated for pilot screen. The procedure:
After an overnight incubation time at 37 C, 95% relative humidity and 5% CO2, cells were treated with DMSO or glycerol at different concentrations. After 2 days, cells were fixed with 4% paraformaldehyde, washed 3 times with PBS and permeabilized for 10-30 min with 0.1% Triton X-100 in PBS (PBS-TX). Cells were then stained with a guinea pig anti-AGT “A1” antibody (1:10,000) and a rabbit anti-PMP70 antibody (Ab3421, 1:500) in PBS-TX containing 0.5% goat serum. After 3 PBS washes, anti-rabbit AF488 and anti-guinea pig AF546 secondary antibodies (both at 1:10,000), as well as Hoeschst at 10 ug/mL were added to each well. Images were acquired with a 20× objective on the CellInsight (Cellomics). Puncta labeled with the anti-PMP70 antibody (labeling peroxisomes) and the anti-AGT antibody are detected in the green and red channels, respectively. Colocalization of the two populations of puncta was determined via calculation of the Pearson Colocalization Coefficient using Cellomics' “Colocalization” BioApplication. Here, miAGT cells are non-mutant AGT expressing CHO cells while the mutant AGT cells are references as 170s. The concentration of glycerol used in […] is listed in both the bar graph and the scatterplot. 4 replicates per condition were done and Z′ and S:B are calculated from the untreated AGT 170 cells versus the miAGT cells.
384-well plate assay protocol. Briefly, AGT-170 cells (and AGTmi cells that serve as a positive control) were seeded in black, square, IQ™ 100 μ384-well plates (Aurora, Brooks, Chelmsford, Mass.) at 500 cells/wells using a Flying Reagent Dispenser (FRD, Beckman Coulter, Brea, Calif.). After an overnight incubation at 37° C., 95% relative humidity (RH) and 5% CO2, cells were treated with 100 nL test compounds or DMSO for the positive and negative wells with a pintool transfer unit (GNF). Plates were then placed in an incubator for three days at 37° C., 95% RH and 5% CO2, immunostained and acquired on a high content imager as described below.
Immunostaining. Following treatment and incubation as described above, cells were fixed by the addition of 2× fixation solution (8% paraformaldehyde-PFA) using a FRD. Plates were then washed 3 times with PBS on the Squirt microplate washer using a 12° nozzle tilt and 15 PSI pressure according to the user's manual for washing normal binding cells in 384-well plate format (Brook, Chelmsford, Mass.). Cells were then permeabilized by dispensing a solution of 0.1% Triton X-100 in PBS (PBS-TX) and incubated for 10-30 minutes. Next, cells were stained with a guinea pig anti-AGT “A1” antibody (Danpure's Lab, London, UK; 1:10,000) and a rabbit anti-PMP70 antibody (Abcam, Cambridge, Mass.; 1:500) in PBS-TX containing 0.5% goat serum. After 3 PBS washes, anti-rabbit AF488 and anti-guinea pig AF546 secondary antibodies (Molecular Probes, Eugene, Oreg.; both at 1:10,000), as well as Hoechst at 10 μg/mL were added to each well. Thirty minutes later, plates were washed 3 times, filled with 50 μL/well of PBS and sealed with black tape.
Image acquisition and analysis. Plates were read and images acquired with the CellInsight high content reader (Thermo Fisher Scientific, Pittsburgh, Pa.) using a 20× objective. A detailed and illustrated description of the image acquisition and analysis is presented FIGS. 1A to 1H. A maximum of 9 fields of view per well were acquired, yielding an average of ≈700 cells detected. The nuclear stain channel (Hoechst, 386 nm, 9.8 milliseconds exposure time) was used to focus on the cell layer. Puncta labeled with the anti-PMP70 antibody (labeling peroxisomes) and the anti-AGT antibody were acquired in the green (485 nm, 40 milliseconds exposure) and red (549 nm, 15 milliseconds exposure) channels, respectively. Nuclei were detected using the fixed threshold method with an intensity threshold of 300. Next, a cytoplasmic region of interest was created around each nucleus by creating a ring with a distance of 1 pixel from the nucleus and a width of 8 pixels. […]

Another data set has as its system CHO cells. The data set is described as follows: Cytotoxicity / cell viability seen in the high content assay (HCS images). The class given is cell-based, Chinese hamster. The procedure: In order to assess the ability to induce and detect an increase in the Pearson's colocalization coefficient, both AGTmi and AGT-170 cells were treated with glycerol, which is a viscous polyol compound known to enhance the stability of proteins in solution. This co-solvent shifts the native protein to more compact states and inhibits protein-protein aggregation while proteins are being refolded during biological synthesis. […] Concentrations of glycerol higher than 5% affected cell viability and prevented accurate determination of the Pearson's colocalization coefficient; for these reasons, they were avoided. To probe the robustness of the assay, the glycerol titration assay was repeated on two separate plates. […] The Z′-factor, a statistical measurement indicative of HTS-readiness, was calculated between the AGT-170 cells in absence and presence of 5% glycerol and found to be 0.58, and at 0.81 between untreated AGT-170 and AGTmi cells.
Fresh powders, solvated in DMSO, were obtained and reformatted as ten point three fold serial dilutions and proceeded to test them in the same assay as described above. […] All data was imported into the Scripps database, assessed for quality control in terms of Z′, S:B and CV (i.e., quality controlled), and curves were fitted using a 4-parameter algorithm without constraining the top or bottom asymptote. […]

The next data set concerns AGTmi cells. The data set is described as follows: AGT/peroxisome co-localization high content assay, AGTmi cells, glycerol treatment. The class given is cell-based, Chinese hamster. The protocol: After an overnight incubation time at 37 C, 95% relative humidity and 5% CO2, cells were treated with DMSO or glycerol at different concentrations. After 2 days, cells were fixed with 4% paraformaldehyde, washed 3 times with PBS and permeabilized for 10-30 min with 0.1% Triton X-100 in PBS (PBS-TX). Cells were then stained with a guinea pig anti-AGT “A1” antibody (1:10,000) and a rabbit anti-PMP70 antibody (Ab3421, 1:500) in PBS-TX containing 0.5% goat serum. After 3 PBS washes, anti-rabbit AF488 and anti-guinea pig AF546 secondary antibodies (both at 1:10,000), as well as Hoeschst at 10 ug/mL were added to each well. Images were acquired with a 20× objective on the CellInsight (Cellomics). Puncta labeled with the anti-PMP70 antibody (labeling peroxisomes) and the anti-AGT antibody are detected in the green and red channels, respectively. Colocalization of the two populations of puncta was determined via calculation of the Pearson Colocalization Coefficient using Cellomics' “Colocalization” BioApplication. […] 4 replicates per condition were done and Z′ and S:B are calculated from the untreated AGT 170 cells versus the miAGT cells.
Image acquisition and analysis. Plates were read and images acquired with the CellInsight high content reader (Thermo Fisher Scientific, Pittsburgh, Pa.) using a 20× objective. […]

Where [1] appears, read: fresh powders, ten point three fold serial dilutions, 25 uM highest concentration, FIG. 5.

“Also recorded” adds a separate entry of the source.

For 26-Deoxymonensin B, in the data set with AGT-170 cells, the “% rescue (normalized AGT co-localization)” value was 73%.
Consider `CC(NCCC(c1ccccc1)c1ccccc1)c1ccccc1` (stereo not shown) [Fendiline], for which the “Activity in concentration response curves” value with AGT-170 cells (setting [1]) was “inactive; also recorded: did not show significant activity”. In addition, the “Toxicity by eye when observing HCS images” value with CHO cells (concentration response test, FIG. 5 and FIG. 6) is on record as “appears toxic at higher concentrations; also recorded: appeared toxic at 10 uM”.
Consider `CC[C@@]1([C@@H]2O[C@@H]([C@H]3O[C@@](O)(CO)[C@H](C)C[C@@H]3C)C[C@@H]2C)CC[C@H]([C@]2(C)CC[C@]3(C[C@H](O)[C@@H](C)[C@@H]([C@@H](C)[C@@H](OC)[C@H](C)C(=O)O)O3)O2)O1` [Monensin], for which the “EC50 potency from concentration response curves” value with AGT-170 cells (setting [1]) is listed as “low micromolar potency”. For the same compound, the “% rescue (normalized AGT co-localization)” value in the data set with AGT-170 cells worked out at 84%.
For `OCC(O)CO` [glycerol], in the data set with AGT-170 cells (1536-well plates, 2 days treatment, FIG. 1), the “Effect on AGT mutant (colocalization with peroxisomes)” value is recorded as “stabilizing the AGT mutant”. For the same compound, in the data set on AGT-170 cells (AGT-170 cells, glycerol treatment), the “fold increase of Pearson's colocalization coefficient” value is 1.91 fold. Further, the “Pearson's colocalization coefficient after glycerol treatment” value with AGT-170 cells (AGT-170 cells, increasing concentrations of glycerol, n=4, untreated 0.41±0.01) is recorded as 0.80±0.04. Moreover, in the data set with AGTmi cells, the “fold increase of Pearson's values” is on record as roughly 1.10 fold. Moreover, the “Concentration that affected cell viability” value in the data set with CHO cells (glycerol titration, prevented accurate determination of the Pearson's coefficient) is “higher than 5%”.

The values are drawn from patent publication US20180003613A1, “Phenotypic High-Content Assay to Evaluate Drugs” (Texas Tech University System, priority 2015, published 2018).
